Broadly, the Vmax is the rate approached at saturating substrate. Usually pKi stands for the negative decadic logarithm of the Ki, by convention in mol/L. Broadly, the Cmax is the highest concentration seen after dosing.

These results are taken from ChEMBL document CHEMBL3526017, “Predicting the drug interaction potential of AMG 853, a dual antagonist of the D-prostanoid and chemoattractant receptor-homologous molecule expressed on T helper 2 cells receptors” (Drug Metab Dispos, 2012).

pKi: −log10 of the molar value.

The nature of data set [1]: Drug metabolism in human liver microsomes assessed as […]-mediated compound formation after 15 mins by LC-MS/MS analysis in presence of UDPGA. The class given is ADME. Conditions: 0.25 h.
Data set [2] concerns the target T1, UDP-glucuronosyltransferase 1A1 (Homo sapiens, UniProt P22309).
T1 sequence (P22309 whole entry): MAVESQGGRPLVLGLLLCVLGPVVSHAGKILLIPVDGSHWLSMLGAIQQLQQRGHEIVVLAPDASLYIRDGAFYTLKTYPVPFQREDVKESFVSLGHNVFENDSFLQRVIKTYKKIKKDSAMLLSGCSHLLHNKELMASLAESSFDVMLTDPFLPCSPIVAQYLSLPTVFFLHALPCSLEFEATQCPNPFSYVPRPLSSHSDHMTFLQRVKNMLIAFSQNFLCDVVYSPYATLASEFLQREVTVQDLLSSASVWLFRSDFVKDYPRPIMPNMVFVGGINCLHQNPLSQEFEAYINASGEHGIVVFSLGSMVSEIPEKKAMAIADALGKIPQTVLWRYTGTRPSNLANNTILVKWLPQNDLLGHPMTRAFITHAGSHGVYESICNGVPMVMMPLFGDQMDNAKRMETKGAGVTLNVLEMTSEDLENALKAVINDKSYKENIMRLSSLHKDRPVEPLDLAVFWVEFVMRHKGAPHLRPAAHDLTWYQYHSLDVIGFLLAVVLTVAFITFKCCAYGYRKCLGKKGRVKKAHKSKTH
The experiment in a line: Drug metabolism assessed as human recombinant UGT1A1-mediated compound formation treated with AMG 853 after 45 mins by LC-MS/MS analysis in presence of UDPGA. The class given is ADME. The note with it: recombinant enzyme, 0.75 h.

For data set [3], the target named is Cytochrome P450 3A5 (Homo sapiens, UniProt P20815). The experiment in a line: Drug metabolism assessed as recombinant CYP3A5 (unknown origin)-mediated 2-(5-chloro-4-(2-(2-chloro-4-cyclopropylphenylsulfonamido)-4-(1-hydroxy-2-methylpropan-2-ylcarbamoyl)phenoxy)-2-fluorophenyl)acetic acid formation at 10 uM after 30 mins by LC-MS/MS analysis. The class given is ADME. The note with it: recombinant enzyme, 0.5 h.

Data set [4] relates to Liver microsome. In words: Drug metabolism in human liver microsomes assessed as 2-(5-chloro-4-(2-(2-chloro-4-cyclopropylphenylsulfonamido)-4-(1-hydroxy-2-methylpropan-2-ylcarbamoyl)phenoxy)-2-fluorophenyl)acetic acid formation at 2 uM after 60 mins by LC-MS/MS analysis in presence of ketoconazole. The note with it: 1 h. It counts as ADME.
For data set [5], the target named is T2, Cytochrome P450 2C8 (Homo sapiens, UniProt P10632).
T2 sequence (P10632 whole entry): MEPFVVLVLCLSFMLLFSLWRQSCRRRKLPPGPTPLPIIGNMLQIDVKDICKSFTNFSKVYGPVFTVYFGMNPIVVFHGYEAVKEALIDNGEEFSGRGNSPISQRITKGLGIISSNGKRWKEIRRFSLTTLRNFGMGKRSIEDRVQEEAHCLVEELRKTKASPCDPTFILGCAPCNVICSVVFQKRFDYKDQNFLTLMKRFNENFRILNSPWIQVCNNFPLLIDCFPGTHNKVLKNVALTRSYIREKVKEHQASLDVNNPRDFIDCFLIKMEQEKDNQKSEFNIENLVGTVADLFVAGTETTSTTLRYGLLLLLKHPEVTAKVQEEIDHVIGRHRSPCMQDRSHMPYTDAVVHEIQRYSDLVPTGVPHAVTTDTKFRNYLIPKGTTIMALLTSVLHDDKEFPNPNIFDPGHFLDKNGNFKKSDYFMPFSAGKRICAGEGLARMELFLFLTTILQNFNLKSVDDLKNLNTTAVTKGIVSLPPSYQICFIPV
The experiment in a line: Competitive inhibition of CYP2C8 in human liver microsomes assessed as paclitaxel 6-hydroxylation after 20 mins by LC-MS/MS analysis. The class given is ADME.

For data set [6], the target named is CYP2B6 (Homo sapiens, UniProt P20813). In words: Induction of CYP2B6 in human hepatocytes using bupropion as substrate at 0.3 to 30 uM treated every 24 hrs for 2 days measured on day 5 by LC-MS/MS analysis relative to control. The class given is ADME, cell-based, Hepatocyte. The note with it: probe bupropion, read-out: FC.
The nature of data set [7]: Cmax in healthy human at 50 mg, po in presence of ketoconazole. The class given is ADME, organism-based. Also noted: dose 50 mg, route oral. Conditions: in vivo.
For data set [8], the system named is CYP3A4. The experiment in a line: Upregulation of CYP3A4 mRNA expression in human hepatocytes at 0.3 to 30 uM treated every 24 hrs for 2 days measured on day 5 relative to control. The class given is ADME, cell-based, Hepatocyte. The note with it: read-out: FC.
The target in data set [9] is Cytochrome P450 3A4 (Homo sapiens, UniProt P08684). In words: Drug metabolism assessed as recombinant CYP3A4 (unknown origin)-mediated 2-(4-(4-(tert-butylcarbamoyl)-2-(2-chloro-4-(1-hydroxycyclopropyl)phenylsulfonamido)phenoxy)-5-chloro-2-fluorophenyl)acetic acid formation at 10 uM after 30 mins by LC-MS/MS analysis. It counts as ADME. The note with it: recombinant enzyme, 0.5 h.

Data set [10] has as its system CYP1A2. In words: Upregulation of CYP1A2 mRNA expression in human hepatocytes at 0.3 to 30 uM treated every 24 hrs for 2 days measured on day 5 relative to control. It counts as ADME, cell-based, Hepatocyte. The note with it: read-out: FC.
For data set [11], the target named is UDP-glucuronosyltransferase 2B15 (Homo sapiens, UniProt P54855). In words: Drug metabolism assessed as human recombinant UGT2B15-mediated (2S,3S,4S,5R,6S)-6-(2-(4-(4-(tert-butylcarbamoyl)-2-(2-chloro-4-cyclopropylphenylsulfonamido)phenoxy)-5-chloro-2-fluorophenyl)acetoxy)-3,4,5-trihydroxytetrahydro-2H-pyran-2-carboxylic acid formation at 10 uM after 30 mins by LC-MS/MS analysis. It counts as ADME. The note with it: recombinant enzyme, 0.5 h.

Data set [12] deals with T3, Cytochrome P450 2J2 (Homo sapiens, UniProt P51589).
T3 sequence (P51589 whole entry): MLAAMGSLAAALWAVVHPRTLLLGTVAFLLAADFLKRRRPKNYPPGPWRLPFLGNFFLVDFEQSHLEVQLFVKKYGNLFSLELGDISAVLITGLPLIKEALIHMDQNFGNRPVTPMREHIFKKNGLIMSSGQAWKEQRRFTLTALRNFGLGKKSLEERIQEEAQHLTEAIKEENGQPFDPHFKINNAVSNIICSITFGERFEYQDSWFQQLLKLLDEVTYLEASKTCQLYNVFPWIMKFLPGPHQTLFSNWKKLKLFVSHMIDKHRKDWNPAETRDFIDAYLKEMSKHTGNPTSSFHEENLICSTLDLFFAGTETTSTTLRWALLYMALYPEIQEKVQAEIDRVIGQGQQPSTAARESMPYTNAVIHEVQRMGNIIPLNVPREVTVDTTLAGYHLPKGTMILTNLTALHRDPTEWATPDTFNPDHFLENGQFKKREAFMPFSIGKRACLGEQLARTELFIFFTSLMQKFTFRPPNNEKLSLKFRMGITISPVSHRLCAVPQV
The experiment in a line: Drug metabolism assessed as recombinant CYP2J2 (unknown origin)-mediated 2-(4-(4-(tert-butylcarbamoyl)-2-(2-chloro-4-(1-hydroxycyclopropyl)phenylsulfonamido)phenoxy)-5-chloro-2-fluorophenyl)acetic acid formation at 10 uM after 30 mins by LC-MS/MS analysis. The class given is ADME. Conditions: recombinant enzyme, 0.5 h.

Data set [13] has as its target T2, Cytochrome P450 2C8. In words: Drug metabolism assessed as recombinant CYP2C8 (unknown origin)-mediated 2-(4-(4-(tert-butylcarbamoyl)-2-(2-chloro-4-(1-hydroxycyclopropyl)phenylsulfonamido)phenoxy)-5-chloro-2-fluorophenyl)acetic acid formation at 10 uM after 30 mins by LC-MS/MS analysis. Conditions: recombinant enzyme, 0.5 h. The class given is ADME.
Data set [14] has as its target CYP3A4 (Homo sapiens, UniProt P08684). In words: Induction of CYP3A4 in human hepatocytes using midazolam as substrate at 0.3 to 30 uM treated every 24 hrs for 2 days measured on day 5 by LC-MS/MS analysis relative to control.

Chain of CYP2B6 (P20813 whole entry): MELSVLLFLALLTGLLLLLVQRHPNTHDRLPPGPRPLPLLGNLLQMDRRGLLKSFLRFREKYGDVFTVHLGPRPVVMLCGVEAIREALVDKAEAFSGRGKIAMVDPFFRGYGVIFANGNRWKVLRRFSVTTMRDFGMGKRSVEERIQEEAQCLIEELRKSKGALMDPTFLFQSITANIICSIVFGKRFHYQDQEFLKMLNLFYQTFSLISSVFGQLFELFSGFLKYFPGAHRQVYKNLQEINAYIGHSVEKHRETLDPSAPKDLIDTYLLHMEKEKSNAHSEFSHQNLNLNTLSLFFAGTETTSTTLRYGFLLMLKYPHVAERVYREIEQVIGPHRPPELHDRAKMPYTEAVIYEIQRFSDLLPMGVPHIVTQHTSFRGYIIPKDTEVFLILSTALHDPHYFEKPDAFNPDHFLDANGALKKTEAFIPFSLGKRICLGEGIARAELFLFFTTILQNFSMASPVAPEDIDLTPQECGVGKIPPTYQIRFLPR
Chain of UDP-glucuronosyltransferase 2B15 (P54855 whole entry): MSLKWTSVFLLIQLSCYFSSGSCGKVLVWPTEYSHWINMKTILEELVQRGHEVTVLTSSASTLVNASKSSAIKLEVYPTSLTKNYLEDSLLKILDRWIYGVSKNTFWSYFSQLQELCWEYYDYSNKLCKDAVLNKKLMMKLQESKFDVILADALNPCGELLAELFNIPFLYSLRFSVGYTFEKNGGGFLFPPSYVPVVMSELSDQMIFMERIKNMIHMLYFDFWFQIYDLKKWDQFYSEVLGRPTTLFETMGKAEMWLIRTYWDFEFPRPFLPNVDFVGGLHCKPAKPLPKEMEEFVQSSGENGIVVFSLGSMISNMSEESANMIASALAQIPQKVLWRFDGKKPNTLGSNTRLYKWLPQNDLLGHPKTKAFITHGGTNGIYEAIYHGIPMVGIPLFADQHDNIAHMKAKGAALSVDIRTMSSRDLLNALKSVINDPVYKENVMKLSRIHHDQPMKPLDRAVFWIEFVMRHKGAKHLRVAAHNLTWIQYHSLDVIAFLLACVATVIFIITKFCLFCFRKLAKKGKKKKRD
Chain of CYP3A4 (Homo sapiens, UniProt P08684) (P08684 whole entry): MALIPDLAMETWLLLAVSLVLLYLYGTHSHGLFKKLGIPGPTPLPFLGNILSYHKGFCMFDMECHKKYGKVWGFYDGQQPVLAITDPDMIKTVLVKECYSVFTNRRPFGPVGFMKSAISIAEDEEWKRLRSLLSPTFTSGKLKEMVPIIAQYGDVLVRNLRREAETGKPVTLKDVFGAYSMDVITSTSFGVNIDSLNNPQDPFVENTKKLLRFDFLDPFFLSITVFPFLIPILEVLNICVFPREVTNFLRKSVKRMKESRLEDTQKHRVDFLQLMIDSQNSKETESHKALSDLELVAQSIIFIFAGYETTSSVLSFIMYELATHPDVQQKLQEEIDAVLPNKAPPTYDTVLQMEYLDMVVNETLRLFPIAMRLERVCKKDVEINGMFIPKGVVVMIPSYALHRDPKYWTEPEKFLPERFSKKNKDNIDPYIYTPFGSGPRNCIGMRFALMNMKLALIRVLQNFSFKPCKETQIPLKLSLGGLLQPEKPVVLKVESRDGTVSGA
Chain of Cytochrome P450 3A4 (P08684 whole entry): as above
Chain of Cytochrome P450 3A5 (P20815 whole entry): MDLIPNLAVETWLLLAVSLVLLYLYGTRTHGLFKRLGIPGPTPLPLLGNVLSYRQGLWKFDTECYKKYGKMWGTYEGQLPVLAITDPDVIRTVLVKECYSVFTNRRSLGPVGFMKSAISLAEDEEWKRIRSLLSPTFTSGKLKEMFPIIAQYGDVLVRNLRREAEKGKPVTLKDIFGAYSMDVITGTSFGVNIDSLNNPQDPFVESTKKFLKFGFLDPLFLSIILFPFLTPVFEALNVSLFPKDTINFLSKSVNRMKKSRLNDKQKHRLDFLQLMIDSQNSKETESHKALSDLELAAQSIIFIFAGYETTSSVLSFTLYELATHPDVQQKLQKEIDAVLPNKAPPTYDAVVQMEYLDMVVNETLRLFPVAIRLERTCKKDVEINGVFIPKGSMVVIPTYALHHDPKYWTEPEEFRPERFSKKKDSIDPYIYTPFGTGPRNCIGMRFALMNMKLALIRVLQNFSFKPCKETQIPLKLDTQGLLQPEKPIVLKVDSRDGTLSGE

Turning to `CC(C)(C)NC(=O)c1ccc(Oc2cc(F)c(CC(=O)O[C@@H]3O[C@H](C(=O)O)[C@@H](O)[C@H](O)[C@H]3O)cc2Cl)c(NS(=O)(=O)c2ccc(C3CC3)cc2Cl)c1`, the Drug metabolism entry in [1] is on record as “metabolite_detected”. In data set [2], the S50 was 218.4 µM and the Vmax is 3.45 pmol/min/mg.
Take `CC(C)(C)NC(=O)c1ccc(Oc2cc(F)c(CC(=O)O)cc2Cl)c(NS(=O)(=O)c2ccc(C3CC3)cc2Cl)c1` [VIDUPIPRANT]: the Drug metabolism entry was “metabolite_detected” in data set [3]; “metabolite_not_detected” in data set [4]; “metabolite_detected” in data set [9]; “metabolite_not_detected” in data set [11]; “metabolite_detected” in data set [12]; “metabolite_detected” in data set [13]. For the same compound, the pKi in data set [5] is 5.96. In addition, the results for the fold induction at 48 h, up to 30 µM in data set [6], in data set [8] and in [10] were 1.4, 1.7 and 1.7, respectively. The Cmax in [7] amounted to 270 ng/mL. In addition, in [14], the fold induction at 48 h, 30 µM was 1.4.
